Bridge positions count the residues as written; N and C are the ends. Ends that are not written are not given here. Peptide text beside a SMILES is read from it.
Tests used:
[1] = biological target: T1, hMC3R (Homo sapiens, UniProt P41968); settings: cited from earlier work
T1 construct: expressed in transfected cells; host or cells: HEK-293

[2] = biological target: T2, hMC4R (Homo sapiens, UniProt P32245); settings: cited from earlier work
T2 construct: expressed in transfected cells; host or cells: HEK-293

[3] = cooperative folding, Jackson et al., 2002; cited from earlier work
[4] = cited from earlier work; for Feeding response compared with AgRP: literature
[5] = tested on: male Long-Evans rats; assay: Feeding and body mass after single third cerebral ventricle (ICV) injection; format: in vivo, rat; settings: single 1.0 nmol ICV dose; for Initial (24 hour) feeding response, in words: first 24 hours
[6] = biological target: T1, hMC3R; settings: cAMP, NDP-MSH stimulated; data adapted from the literature (footnote c); read-out: EC50, MC3R; cited from earlier work

T1 sequence (P41968 whole entry): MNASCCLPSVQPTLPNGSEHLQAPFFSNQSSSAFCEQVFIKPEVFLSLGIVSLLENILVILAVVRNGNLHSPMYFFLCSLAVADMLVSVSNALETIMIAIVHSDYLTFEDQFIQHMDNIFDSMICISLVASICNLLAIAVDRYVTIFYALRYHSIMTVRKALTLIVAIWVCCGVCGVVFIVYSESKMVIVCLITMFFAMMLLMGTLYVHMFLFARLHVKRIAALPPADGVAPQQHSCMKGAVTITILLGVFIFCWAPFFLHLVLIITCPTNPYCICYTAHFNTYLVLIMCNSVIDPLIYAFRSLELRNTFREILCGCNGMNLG
T2 sequence (P32245 whole entry): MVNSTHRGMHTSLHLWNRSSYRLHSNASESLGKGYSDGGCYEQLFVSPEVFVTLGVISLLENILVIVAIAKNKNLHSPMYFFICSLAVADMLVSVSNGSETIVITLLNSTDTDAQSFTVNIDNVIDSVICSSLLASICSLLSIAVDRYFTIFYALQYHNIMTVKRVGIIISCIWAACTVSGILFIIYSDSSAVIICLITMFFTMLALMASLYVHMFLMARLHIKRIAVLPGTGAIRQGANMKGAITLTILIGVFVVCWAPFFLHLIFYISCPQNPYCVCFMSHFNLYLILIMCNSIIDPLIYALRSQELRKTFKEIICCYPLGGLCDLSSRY

Compound: CC(=O)N[C@H]1CSSC[C@@H]2NC(=O)[C@@H]3CSSC[C@@H](C(=O)N[C@@H](CCCNC(=N)N)C(N)=O)NC(=O)[C@H](Cc4ccc(O)cc4)NC(=O)[C@@H]4CSSC[C@H](NC(=O)[C@H](Cc5ccc(O)cc5)NC(=O)[C@H](CSSC[C@H](NC(=O)[C@H](CO)NC(=O)[C@H](CCC(=O)O)NC(=O)[C@H](Cc5c[nH]cn5)NC(=O)[C@H](CC(C)C)NC(=O)[C@H](CCCNC(=N)N)NC(=O)[C@H](C(C)C)NC1=O)C(=O)N[C@@H](CC(C)C)C(=O)NCC(=O)N[C@@H](CCC(N)=O)C(=O)N[C@@H](CCC(N)=O)C(=O)N[C@@H](C(C)C)C(=O)N1CCC[C@H]1C(=O)N3)NC(=O)[C@H]([C@@H](C)O)NC(=O)[C@H](C)NC(=O)[C@H](C)NC(=O)[C@@H]1CCCN1C(=O)[C@H](CC(=O)O)NC2=O)C(=O)N[C@@H](CCCNC(=N)N)C(=O)N[C@@H](Cc1ccccc1)C(=O)N[C@@H](Cc1ccccc1)C(=O)N[C@@H](CC(N)=O)C(=O)N[C@@H](C)C(=O)N[C@@H](Cc1ccccc1)C(=O)N4 [AgRP(87-120)] (Ac-CVRLHESCLGQQVPCCDPAATCYCRFFNAFCYCR-NH2; disulfide 1-16, 8-22, 15-33, 24-31 (inferred); C-terminus assumed)
- Dissociation constant at Mc3R compared with mature AgRP(83-132) ([1]; previous study): equivalent to mature AgRP(83-132)
- Dissociation constant at Mc4R compared with mature AgRP(83-132) ([2]; previous study): equivalent to mature AgRP(83-132)
- Folding stability [3]: indistinguishable from AgRP(83-132)

Compound: MTII
- Feeding after injection following AgRP administration ([4]; injected after AgRP): transiently reduces feeding

Compound: SHU9119
- Feeding response compared with AgRP [4]: long-term response similar to AgRP

Compound: mature wild type human Agouti-Related Protein, SSRR-CVRLHESCLGQQVPCCDPCATCYCRFFNAFCYC-RKLGTAMNPCSRT (SSRRCVRLHESCLGQQVPCCDPCATCYCRFFNAFCYCRKLGTAMNPCSRT; not fully specified (bridges); ends and bridges not checked; listed as Homo sapiens) [AgRP(83-132)]
- Feeding increase over control at three or four days after injection [5]: about 30%
- Initial (24 hour) feeding response, in words [5]: the most potent
- Initial (24 hour) feeding response, in words ([5]; listed as AgRP): greatly stimulate feeding
- Feeding increase over control after one day ([5]; first 24 hr): ~80%
- Ki ([2]; displacement of 125I-NDP-MSH, data adapted from the literature (footnotes a, d), read-out: Ki, MC4R): 11 ± 0.7 nM

Compound: neuropeptide Y [neuropeptide Y (NPY)]
- Feeding response compared with AgRP [4]: feeding returns to baseline after 24 hours

Compound: truncated AgRP lacking the N-terminal SSRR segment: CVRLHESCLGQQVPCCDPCATCYCRFFNAFCYC-RKLGTAMNPCSRT [AgRP(87-132)]
- Ki ([1]; displacement of 125I-NDP-MSH, data adapted from the literature (footnote a), read-out: Ki, MC3R): 5.2 ± 0.7 nM
- EC50 [6]: 8.9 ± 0.2 nM

Source: patent publication US9394343B2, “Appetite stimulating protein” (The Regents of the University of California, priority 2011, dated 2016)
